According to ChEMBL document CHEMBL4145625 (J Med Chem, 2018):
In brackets after ≈: the same amount, converted by molar mass.

Legend:
NCI-H460 [1] = experiment: cells; assay type: functional, cell-based; settings: Homo sapiens, NCI-H460, 96 h
Description: Cytotoxicity against human NCI-H460 cells after 96 hrs by MTT assay

[2] = molecular target: RAC-alpha serine/threonine-protein kinase (Homo sapiens, UniProt P31749); experiment: Inhibition of AKT1 (unknown origin) using FAM-labeled peptide as substrate by mobility shift assay
A549 = experiment: cells; assay type: functional, cell-based; settings: Homo sapiens, A549, 96 h
Description: Cytotoxicity against human A549 cells after 96 hrs by MTT assay

DU-145 = experiment: cells; assay type: functional, cell-based; settings: Homo sapiens, DU-145, 96 h
Description: Cytotoxicity against human DU145 cells after 96 hrs by MTT assay

U-251 = experiment: cells; assay type: functional, cell-based; settings: Homo sapiens, U-251, 96 h
Description: Cytotoxicity against human U251 cells after 96 hrs by MTT assay

T98G = experiment: cells; assay type: functional, cell-based; settings: Homo sapiens, 96 h
Description: Cytotoxicity against human T98G cells after 96 hrs by MTT assay

HGC-27 [3] = experiment: Antitumor activity against human HGC27 cells xenografted in BALB/c nude mouse assessed as tumor growth inhibition at […], po administered once daily for 15 days measured at post last dose relative to control; assay type: functional; settings: HGC-27, po, 360 h, read-out: TGI
Mus musculus [4] = experiment: Toxicity in human HGC27 cells xenografted in BALB/c nude mouse assessed as reduction in body weight at […], po administered once daily for 15 days measured at post last dose; assay type: organism-based; settings: in vivo, 360 h
U-87 MG = experiment: Antitumor activity against Luc tagged human U87MG cells xenografted in BALB/c nude mouse glioblastoma orthotopic model assessed as tumor growth inhibition at 5 mg/kg, po qd by MRI method relative to control; assay type: functional, U-87MG ATCC; settings: read-out: TGI
Mus musculus [5] = experiment: In vivo inhibition of PI3Kalpha in po dosed athymic BALB/c nude mouse xenografted with human NCI-H460 cells administered as single dose via gavage after 2 to 24 hrs; assay type: functional, organism-based
NCI-H460 [6] = experiment: Antitumor activity against human NCI-H460 cells xenografted in po dosed athymic BALB/c nude mouse administered as single dose via gavage after 2 to 24 hrs; assay type: functional, organism-based
Salmonella typhimurium [7] = experiment: Mutagenicity in Salmonella typhimurium TA98 at 500 ug/plate after 72 hrs by Ames test; assay type: toxicity, organism-based; settings: salmonella enterica subsp. enterica serovar typhimurium
Salmonella typhimurium [8] = experiment: Mutagenicity in Salmonella typhimurium TA100 at 500 ug/plate after 72 hrs by Ames test; assay type: toxicity, organism-based; settings: salmonella enterica subsp. enterica serovar typhimurium
Salmonella typhimurium [9] = experiment: Mutagenicity in Salmonella typhimurium TA1535 at 500 ug/plate after 72 hrs by Ames test; assay type: toxicity, organism-based; settings: salmonella enterica subsp. enterica serovar typhimurium
Salmonella typhimurium [10] = experiment: Mutagenicity in Salmonella typhimurium TA1535 up at 50 ug/plate after 72 hrs in presence of S9 fraction by Ames test; assay type: toxicity, organism-based; settings: salmonella enterica subsp. enterica serovar typhimurium, s9, 72 h
Salmonella typhimurium [11] = experiment: Mutagenicity in Salmonella typhimurium TA97 at 500 ug/plate after 72 hrs by Ames test; assay type: toxicity, organism-based; settings: salmonella enterica subsp. enterica serovar typhimurium
Cytochrome P450 2C19 = Cytochrome P450 2C19 (Homo sapiens, UniProt P33261)
Description: Inhibition of CYP2C19 in human liver microsomes assessed as reduction in 4-Hydroxymephenytoinn formation using mephenytoin as substrate after 10 to 20 mins in presence of NADPH by LC-MS/MS analysis

[12] = mouse, in vivo, po, 30 mg/kg
[13] = mouse, in vivo, po, 10 mg/kg, 24 h
in vivo [14] = settings: ICR, mouse, plasma, iv, 3 mg/kg
in vivo [15] = settings: ICR, mouse, plasma, po, 30 mg/kg
in vivo [16] = settings: ICR, mouse, plasma, po, 30 mg/kg; remark: listed apart in the source
in vivo [17] = settings: ICR, mouse, brain, po, 30 mg/kg
in vivo [18] = settings: athymic BALB/c nude, mouse, plasma, po, 10 mg/kg
in vitro [19] = settings: human, plasma
Description: Protein binding in human plasma at 2 uM after 6 hrs by LC-MS/MS analysis

in vitro [20] = settings: ICR, mouse, plasma
Description: Protein binding in ICR mouse plasma at 2 uM after 6 hrs by LC-MS/MS analysis

HGC-27 [21] = experiment: Antitumor activity against human HGC27 cells xenografted in BALB/c nude mouse assessed as tumor growth inhibition at 10 mg/kg, po administered once daily for 15 days measured at post last dose relative to control; assay type: functional; settings: HGC-27, po, 360 h, read-out: TGI
Mus musculus [22] = experiment: Toxicity in human HGC27 cells xenografted BALB/c nude mouse assessed as reduction in body weight at 10 mg/kg, po administered once daily for 15 days measured at post last dose; assay type: organism-based; settings: in vivo, 360 h
NCI-H460 [23] = experiment: Antitumor activity against human NCI-H460 cells xenografted in BALB/c nude mouse assessed as tumor growth inhibition at 20 mg/kg, po administered once daily after 16 days relative to control; assay type: functional; settings: 384 h, read-out: TGI
NCI-H460 [24] = experiment: Antitumor activity against human NCI-H460 cells xenografted in BALB/c nude mouse assessed as tumor growth inhibition at 10 mg/kg, po administered once daily after 16 days relative to control; assay type: functional; settings: 384 h, read-out: TGI
NCI-H460 [25] = experiment: Antitumor activity against human NCI-H460 cells xenografted in BALB/c nude mouse assessed as tumor growth inhibition at 5 mg/kg, po administered once daily after 16 days relative to control; assay type: functional; settings: 384 h, read-out: TGI
MGC-803 [26] = experiment: Antitumor activity against human MGC803 cells xenografted in BALB/c nude mouse assessed as tumor growth inhibition at 5 mg/kg, po administered once daily for 18 days measured at post last dose relative to control; assay type: functional; settings: MGC-803, po, 432 h, read-out: TGI
MGC-803 [27] = experiment: Antitumor activity against human MGC803 cells xenografted in BALB/c nude mouse assessed as tumor growth inhibition at 10 mg/kg, po administered once daily for 18 days measured at post last dose relative to control; assay type: functional; settings: MGC-803, po, 432 h, read-out: TGI
MGC-803 [28] = experiment: Antitumor activity against human MGC803 cells xenografted in BALB/c nude mouse assessed as tumor growth inhibition at 20 mg/kg, po administered once daily for 18 days measured at post last dose relative to control; assay type: functional; settings: MGC-803, po, 432 h, read-out: TGI
HGC-27 [29] = experiment: Antitumor activity against human HGC27 cells xenografted in BALB/c nude mouse assessed as tumor growth inhibition at 5 mg/kg, po administered once daily for 15 days measured at post last dose relative to control; assay type: functional; settings: HGC-27, po, 360 h, read-out: TGI
Mus musculus [30] = experiment: Toxicity in human NCI-H460 cells xenografted BALB/c nude mouse assessed as reduction in body weight at 5 to 20 mg/kg, po administered once daily after 16 days; assay type: organism-based; settings: in vivo, 384 h
Mus musculus [31] = experiment: Toxicity in human MGC803 cells xenografted BALB/c nude mouse assessed as reduction in body weight at 5 to 20 mg/kg, po administered daily for 18 days measured at post last dose; assay type: organism-based; settings: in vivo, 432 h
NCI-H460 [32] = settings: Homo sapiens
Description: Antitumor activity against human NCI-H460 cells xenografted in po dosed BALB/c nude mouse assessed as tumor growth inhibition administered once daily after 16 days

MGC-803 [33] = settings: Homo sapiens
Description: Antitumor activity against human MGC803 cells xenografted in po dosed BALB/c nude mouse assessed as tumor growth inhibition administered once daily measured at post last dose

Cytochrome P450 2C19, sequence (P33261 whole entry): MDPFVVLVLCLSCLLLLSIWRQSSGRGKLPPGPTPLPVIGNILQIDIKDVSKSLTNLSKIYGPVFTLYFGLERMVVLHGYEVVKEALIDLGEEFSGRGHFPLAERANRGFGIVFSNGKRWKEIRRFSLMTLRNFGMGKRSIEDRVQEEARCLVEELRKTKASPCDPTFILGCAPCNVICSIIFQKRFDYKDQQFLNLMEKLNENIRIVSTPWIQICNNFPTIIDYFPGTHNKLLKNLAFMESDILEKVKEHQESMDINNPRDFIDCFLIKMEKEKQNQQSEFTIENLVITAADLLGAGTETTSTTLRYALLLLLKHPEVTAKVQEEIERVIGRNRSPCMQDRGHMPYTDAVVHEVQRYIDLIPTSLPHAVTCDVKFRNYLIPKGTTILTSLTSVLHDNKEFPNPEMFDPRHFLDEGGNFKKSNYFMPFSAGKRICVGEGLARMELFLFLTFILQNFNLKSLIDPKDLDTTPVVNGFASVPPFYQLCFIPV
RAC-alpha serine/threonine-protein kinase, sequence (P31749 whole entry): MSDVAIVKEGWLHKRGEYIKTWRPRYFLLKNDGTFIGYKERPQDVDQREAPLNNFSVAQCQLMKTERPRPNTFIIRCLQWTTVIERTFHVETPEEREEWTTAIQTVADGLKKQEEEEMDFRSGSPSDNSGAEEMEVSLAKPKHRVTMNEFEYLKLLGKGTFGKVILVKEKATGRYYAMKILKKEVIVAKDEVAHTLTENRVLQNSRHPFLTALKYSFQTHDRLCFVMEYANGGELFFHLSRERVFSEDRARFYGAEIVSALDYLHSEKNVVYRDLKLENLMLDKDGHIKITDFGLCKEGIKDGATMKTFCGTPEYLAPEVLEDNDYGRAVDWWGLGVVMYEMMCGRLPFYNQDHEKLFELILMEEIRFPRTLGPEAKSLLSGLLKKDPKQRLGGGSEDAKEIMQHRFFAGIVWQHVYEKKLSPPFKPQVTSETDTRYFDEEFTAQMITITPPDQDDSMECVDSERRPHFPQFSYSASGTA

SMILES: CNc1nc(C)c2cc(-c3cnc(OC)c(NS(=O)(=O)c4ccc(F)cc4F)c3)cc(OC3CCOCC3)c2n1
- IC50 (NCI-H460 [1]): 59 nM
- IC50 [2]: > 10000 nM
- IC50 (A549): 110 nM
- IC50 (DU-145): 5200 nM
- IC50 (U-251): 700 nM
- IC50 (T98G): 390 nM
- inhibition in vivo at […] (HGC-27 [3]): 94.1%
- Activity (Mus musculus [4]): Toxic
- inhibition in vivo at 5 mg/kg (U-87 MG): 96%
- IC90 (Mus musculus [5]): 4 ng/mL (≈ 7 nM)
- IC50 (Mus musculus [5]; Mus musculus, BALB/c, NCI-H460): 0.8 ng/mL (≈ 1.4 nM)
- IC50 (NCI-H460 [6]): 34 ng/mL (≈ 59.5 nM)
- Activity (Salmonella typhimurium [7]): Toxic
- Activity (Salmonella typhimurium [8]): Toxic
- Activity (Salmonella typhimurium [9]): Toxic
- Activity (Salmonella typhimurium [10]): Toxic
- Activity (Salmonella typhimurium [11]): Toxic
- IC50 (Cytochrome P450 2C19): > 10000 nM
- AUCt [12]: 895 ng·h/g
- AUC [13]: 5576 ng·h/g
- Tmax (in vivo [14]): 3 min
- Tmax (in vivo [15]): 10.8 min
- AUC(0-inf) (in vivo [16]): 16100 ng·h/mL
- Cmax (in vivo [17]): 723 ng/g
- AUC(0-t) at 24 h (in vivo [18]): 5460 ng·h/mL
- fraction unbound at 6 h, 2 µM (in vitro [19]): 0.0454
- fraction unbound at 6 h, 2 µM (in vitro [20]): 0.0842

SMILES: CNc1nc(C)c2cc(-c3cnc(OC)c(NS(=O)(=O)c4ccc(F)cc4F)c3)cc(O[C@@H]3CCOC3)c2n1
- IC50 [2]: > 10000 nM
- IC50 (A549): 120 nM
- IC50 (DU-145): 6500 nM
- IC50 (U-251): 460 nM
- IC50 (T98G): 410 nM
- inhibition in vivo at 10 mg/kg (HGC-27 [21]): 94.6%
- Activity (Mus musculus [22]): Toxic
- inhibition in vivo at 5 mg/kg (U-87 MG): 89.4%
- IC50 (Cytochrome P450 2C19): > 10000 nM
- AUCt [12]: 742 ng·h/g
- Tmax (in vivo [14]): 1.8 min
- Tmax (in vivo [15]): 15 min
- AUC(0-inf) (in vivo [16]): 17100 ng·h/mL
- Cmax (in vivo [17]): 433 ng/g

SMILES: COc1ncc(-c2cc(O[C@@H]3CCOC3)c3nc(N)nc(C)c3c2)cc1NS(=O)(=O)c1ccc(F)cc1F
- IC50 (NCI-H460 [1]): 93 nM
- IC50 [2]: > 10000 nM
- IC50 (A549): 84 nM
- IC50 (DU-145): 2100 nM
- IC50 (U-251): 140 nM
- IC50 (T98G): 280 nM
- inhibition in vivo at 20 mg/kg (NCI-H460 [23]): 75.9%
- inhibition in vivo at 10 mg/kg (NCI-H460 [24]): 83.1%
- inhibition in vivo at 5 mg/kg (NCI-H460 [25]): 41.9%
- inhibition in vivo at 5 mg/kg (MGC-803 [26]): 55.1%
- inhibition in vivo at 10 mg/kg (MGC-803 [27]): 69.3%
- inhibition in vivo at 20 mg/kg (MGC-803 [28]): 77.8%
- inhibition in vivo at 5 mg/kg (HGC-27 [29]): 36.1%
- inhibition in vivo at 10 mg/kg (HGC-27 [21]): 74.7%
- Activity (Mus musculus [30]): Toxic
- Activity (Mus musculus [31]): Toxic
- IC50 (Cytochrome P450 2C19): > 10000 nM
- AUCt [12]: 28.6 ng·h/g
- TGI (NCI-H460 [32]): Dose-dependent effect
- TGI (MGC-803 [33]): Dose-dependent effect
- Tmax (in vivo [14]): 1.8 min
- Tmax (in vivo [15]): 4.8 min
- AUC(0-inf) (in vivo [16]): 9040 ng·h/mL
